From publication PMC7870773, “Investigation of the cytotoxicity of bioinspired coumarin analogues towards human breast cancer cells” (Molecular Diversity, 2020)

What was measured:
[1] = tested on: MCF-7 breast cancer cells; assay: MTT cell viability under nutrient-deprived conditions, MCF-7; format: cell-based; settings: Homo sapiens, MCF7, up to 48 h, average ± SD
Method: (§1) Cells were culture using nutrient-deprived cell culture conditions (i.e. cell culture media with no glucose, L-glutamine, HEPES and sodium pyruvate) to mimic conditions similar to the tumour microenvironment. Note that these experiments were performed only using breast cancer cells. MCF-7 and MDA-MB-231 cells were seeded in 96-well plates (Corning Inc., NY, USA) at a density of 1 × 10^4 and 6.7 × 10^3 cells/cm^2, respectively. Cells were incubated with coumarin derivatives at concentrations of 0.1, 1, 10, 50, 100 and 250 μM up to 48 h. Untreated cells (negative) and cells incubated with 0.5% (v/v) DMSO in complete media (positive) were used as controls.
(§2) For each treatment, cell viability was measured via MTT assay after 48-h incubation as following described. Cell culture medium was replaced with 150 μL of fresh medium and 30 μL of MTT solution, and cells were incubated for 4 h (37 °C, 5% CO2). After the formazan crystal formation, cell culture medium was removed from each well and replaced with 200 μL of DMSO. The absorbance was measured at 540-nm wavelength using a plate reader (Synergy 2 Biotek plate reader, Gen5 software).
(§3) IC50 values were calculated (nonlinear regression, normalized response–variable slope) with GraphPad Prism (version 7.04). Values were ranked and classified as: high toxicity, moderate toxicity, poor toxicity and no toxicity. Threshold were set as 60, 80 and > 100 μM, respectively. The selection was used in order to test only the most toxic coumarins under cell culture condition more relevant to the tumour microenvironment, i.e. deprived cell culture media (Sect. 3.3).
(§4) On that basis, we exposed the breast cancer cells to nutrient-deprived conditions where culture media were supplemented only with 2.5% v/v FBS, but not additional glucose, L-glutamine, sodium pyruvate. The coumarins tested were auraptene (4k), umbelliprenin (4l) and analogues 4d, 4c and 4g. […] In similar studies, Zhang et al. and Jun et al. reported the high preferential cytotoxicity of umbelliprenin (4l) and its C6 analogue under NDC against pancreatic cancer cells. It should be therefore noted that these derivatives could represent a potential new tool for treating aggressively metastatic hypoxic tumours. The exact mechanism of action, though, should be further investigated.

[2] = tested on: MDA-MB-231 breast cancer cells; assay: MTT cell viability, 48-h incubation, complete medium, MDA-MB-231; format: cell-based, human; settings: for IC50: Homo sapiens, MDA-MB-231, complete medium, mean ± SD
Method: (§5) Unless otherwise specified, all cell culture experiments were performed in a humidified 5% (v/v) CO2 air atmosphere at 37 °C in complete medium, and cell culture growth media were supplemented with 10% (v/v) foetal bovine serum and 2 mM L-glutamine. Human breast adenocarcinoma cell lines were cultured, maintained at densities lower than 1 × 10^6 cells/cm^2 and discarded upon reaching passage number 60. Stromal healthy cells (human colorectal fibroblasts, 18Co) were cultured using complete DMEM medium supplemented also with 1% (v/v) penicillin–streptomycin. Cells were maintained at densities less than 1 × 10^6 cells/cm^2 and discarded upon reaching passage number 12.
(§6) The full library of coumarins was tested in both breast cancer cell lines, i.e. MCF-7 and MDA-MB-231. Fibroblast were used as “healthy” control. Stocks of compounds 3a–3c, 4a–4m and 5 were dissolved in pure DMSO and then diluted in complete media. (Note that DMSO concentration was kept lower than 0.5% (v/v).) Briefly, MCF-7 and MDA-MB-231 cells were seeded in 96-well plates (3799, Corning Inc., NY, USA) at a density of 1 × 10^4 and 6.7 × 10^3 cells/cm^2, respectively, whereas 18Co fibroblasts were seeded at a density of 1 × 10^4 cells/cm^2. Cells were incubated with coumarin derivatives at concentrations 0.1, 1, 10, 50, 100 and 250 μM for 48 h. Untreated cells (negative) and cells incubated with 0.5% (v/v) DMSO in complete media (positive) were used as controls.
as §2, §3

[3] = tested on: MDA-MB-231 breast cancer cells; assay: MTT cell viability under nutrient-deprived conditions, MDA-MB-231; format: cell-based; settings: Homo sapiens, up to 48 h, average ± SD
Method: as §1, §2, §3, §4

[4] = tested on: MCF-7 breast cancer cells; assay: MTT cell viability, 48-h incubation, complete medium, MCF-7; format: cell-based, human; settings: for IC50: Homo sapiens, MCF7, 48-h incubation, complete medium, mean ± SD
Method: as §5, §6, §2, §3

[5] = tested on: 18Co colon fibroblasts; assay: MTT cell viability, 48-h incubation, 18Co fibroblasts (healthy control); format: cell-based, human; settings: for IC50: Homo sapiens, Fibroblast, 48-h incubation, healthy control, mean ± SD
Method: as §5, §6, §2, §3

| Structure (SMILES) | IC50 [1] | melting point | IC50 [2] | IC50 [3] | IC50 [4] | fold more cytotoxic than monosubstituted analogue 4a ([4]; MCF-7 cells, 4g versus 4a) | IC50 [5] | cytotoxicity in words, MDA-MB-231 [2] | toxicity in words, 18Co fibroblasts ([5]; healthy control cells) |
| --- | --- | --- | --- | --- | --- | --- | --- | --- | --- |
| Cc1cc(=O)oc2cc(O)cc(O)c12 [3b, 5,7-Dihydroxy-4-methyl-2H-chromen-2-one] |  |  | > 250 µM |  | > 250 µM |  |  |  |  |
| CCCCCCCCOc1ccc2c(C)cc(=O)oc2c1 [4d, 4-Methyl-7-octyloxy-2H-chromen-2-one] | 29 ± 3 µM | 51 °C | 113 ± 7 µM | 63 ± 5 µM | 82 ± 19 µM |  | 206 ± 17 µM | slight toxic effect |  |
| O=c1ccc2ccc(O)cc2o1 [3c, 7-hydroxy-coumarin] |  |  | > 250 µM |  | > 250 µM |  | > 250 µM |  |  |
| CC(C)=CCC/C(C)=C/COc1ccc2ccc(=O)oc2c1 [4k, 7-Geranyloxy-2H-chromen-2-one] | 14 ± 5 µM |  | 60 ± 4 µM | 12 ± 8 µM | 70 ± 5 µM |  | 176 ± 62 µM |  | some toxicity |
| CC(C)=CCCC(C)=CCCC(C)=CCOc1ccc2c(C)cc(=O)oc2c1 [4c, 7-Farnesyloxy-4-methyl-2H-chromen-2-one] | 19 ± 3 µM |  | 110 ± 29 µM | 51 ± 9 µM | 105 ± 3 µM |  | > 250 µM |  |  |
| CCCc1cc(=O)oc2cc(OCC=C(C)C)ccc12 [4e, 7-Prenyloxy-4-propyl-2H-chromen-2-one] |  | 89 °C | > 250 µM |  | > 250 µM |  |  |  |  |
| CCCc1cc(=O)oc2cc(O)ccc12 [3a, 7-Hydroxy-4-propyl-2H-chromen-2-one] |  | 130 °C | 206 ± 9 µM |  | 225 ± 19 µM |  |  |  |  |
| CC(C)=CCC/C(C)=C/COc1ccc2c(C)cc(=O)oc2c1 [4b, 7-Geranyloxy-4-methyl-2H-chromen-2-one] |  |  | 137 ± 9 µM |  | 129 ± 13 µM |  |  |  |  |
| CC(C)=CCOc1ccc2c(C)cc(=O)oc2c1 [4a, 7-Prenyloxy-4-methyl-2H-chromen-2-one] |  | 84 °C | 169 ± 23 µM |  | 179 ± 35 µM |  |  |  |  |

More lines, main results first:

| IC50 [1] | melting point | IC50 [2] | IC50 [3] | IC50 [4] | Structure (SMILES) | fold more cytotoxic than monosubstituted analogue 4a ([4]; MCF-7 cells, 4g versus 4a) | IC50 [5] | cytotoxicity in words, MDA-MB-231 [2] | toxicity in words, 18Co fibroblasts ([5]; healthy control cells) |
| --- | --- | --- | --- | --- | --- | --- | --- | --- | --- |
| 35 ± 9 µM | 90 °C | 144 ± 16 µM | 11 ± 2 µM | 69 ± 14 µM | CC(C)=CCOc1cc(OCC=C(C)C)c2c(C)cc(=O)oc2c1 [4g, 5,7-Diprenyloxy-4-methyl-2H-chromen-2-one] | approximately 2.5 times | 216 ± 23 µM |  |  |
|  |  | > 250 µM |  | > 250 µM | CC(=O)Oc1cc(OC(C)=O)c2c(C)cc(=O)oc2c1 [compound 5, 5,7-Diacetyloxy-4-methyl-2H-chromen-2-one] |  |  |  |  |
|  |  | 175 ± 33 µM |  | 143 ± 11 µM | CC(C)=CCOc1ccc2ccc(=O)oc2c1 [4j, 7-Prenyloxy-2H-chromen-2-one] |  |  |  |  |
|  | 79 °C | 133 ± 34 µM |  | > 250 µM | CCCc1cc(=O)oc2cc(OC/C=C(\C)CCC=C(C)C)cc(OC/C=C(\C)CCC=C(C)C)c12 [4i, 5,7-Digeranyloxy-4-propyl-2H-chromen-2-one] |  |  |  |  |
|  |  | 0.48 µM |  | 0.97 µM | COc1cccc2c1C(=O)c1c(O)c3c(c(O)c1C2=O)C[C@@](O)(C(=O)CO)C[C@@H]3O[C@H]1C[C@H](N)[C@H](O)[C@H](C)O1 [doxorubicin, reference compound] |  |  |  |  |
|  | 71 to 72 °C | 159 ± 61 µM |  | 234 ± 76 µM | CCCc1cc(=O)oc2cc(OCC=C(C)C)cc(OCC=C(C)C)c12 [4h, 5,7-Diprenyloxy-4-propyl-2H-chromen-2-one] |  |  |  |  |
| 9 ± 1 µM |  | 88 ± 3 µM | 7 ± 2 µM | 98 ± 9 µM | CC(C)=CCCC(C)=CCCC(C)=CCOc1ccc2ccc(=O)oc2c1 [4l, 7-Farnesyloxy-coumarin] |  | > 250 µM |  |  |
|  | 72 to 73 °C | 187 ± 66 µM |  | > 250 µM | CC(C)=CCC/C(C)=C/CC/C(C)=C/CC/C(C)=C/COc1ccc2ccc(=O)oc2c1 [4m, 7-Geranylgeranyloxy-coumarin] |  |  |  |  |
|  | 47 °C | 143 ± 34 µM |  | 124 ± 39 µM | CCCCCCCCOc1ccc2c(CCC)cc(=O)oc2c1 [4f, 7-Octyloxy-4-propyl-2H-chromen-2-one] |  |  |  |  |
